The assay has as its target T1, GLP-1R (Homo sapiens, UniProt P43220).
T1 construct: host or cells: GLP-1R CRE-bla CHO-K1 cells
Kind of assay: EC20 GLP-1(9-36) PAM cAMP assay: dose response of compound in the presence of fixed concentration of GLP-1(9-36). In kind it is cell-based. Conditions: GLP-1R CRE-bla CHO-K1 cells, read-out: EC20 GLP-1(9-36) PAM EC50. As to the method:
EC20 GLP-1(9-36) PAM cAMP Assay: Dose Response of Compound in the Presence of Fixed Concentration of GLP-1 (9-36).
GLP-1R CRE-bla CHO-K1 cells cultured in growth medium (DMEM-High glucose, 10% dialyzed FBS, 0.1 mM NEAA, 25 mM Hepes, 100 U/mL penicillin/100 μg/mL streptomycin, 5 μg/mL Blasticidin, 600 μg/mL Hygromycin) were trypsinized and plated in suspension into 384 well white flat bottom plates at 5000 cells/well in 12 μL assay buffer (Hanks Balanced Salt solution, 10 mM hepes, 0.1% BSA, pH 7.4). A 5× compound dose response curve (12-point) was generated in assay buffer containing 1.5 mM IBMX, 4% DMSO. GLP-1(9-36) was diluted to 4.2 μM in assay buffer containing 1.5 mM IMBX and 4% DMSO. The 5× compound dose response was added (3 μL), followed by 0.5 μL of GLP-1(9-36) and cells were incubated for 30 min at 37° C. Direct detection of cAMP was carried out using DiscoveRx HitHunter cAMP kit according to manufacturer's instructions and luminescence was read using a SpectraMax M5 plate reader. Luminescence was converted to total cAMP using a cAMP standard curve and data was analyzed by non-linear regression to determine the EC50 and Emax.
GLP-1(7-36): […]-NH2 (SEQ ID NO: 2). GLP-1(9-36): […]-NH2 (SEQ ID NO: 3). GLP-1(7-36) was purchased from GenScript. GLP-1(9-36) was purchased from Biopeptide Co., Inc.
The EC20GLP-1(9-36) PAM Activity range is denoted as follows: + denotes activity <0.8 μM, ++ denotes activity between 0.8 and 2.5 μM, +++ denotes activity between 2.5 and 5 μM, and ++++ denotes activity 5 to 10 μM.
(Cyclic AMP is a second messenger, typically raised through Gs and lowered through Gi signalling.)

[1] abbreviates: dose response of compound in presence of fixed concentration of GLP-1(9-36).
The mark [2] stands for this setting: compound dose response with fixed concentration of GLP-1(9-36).

Results on 20 compounds are retold here after patent US10034886B2, “GLP-1 receptor modulators” (Celgene International II SÀRL, priority 2014, dated 2018).

Structures are written as SMILES. Read-outs that look alike come from different tables or passages of the source.

T1 sequence (P43220 24-463): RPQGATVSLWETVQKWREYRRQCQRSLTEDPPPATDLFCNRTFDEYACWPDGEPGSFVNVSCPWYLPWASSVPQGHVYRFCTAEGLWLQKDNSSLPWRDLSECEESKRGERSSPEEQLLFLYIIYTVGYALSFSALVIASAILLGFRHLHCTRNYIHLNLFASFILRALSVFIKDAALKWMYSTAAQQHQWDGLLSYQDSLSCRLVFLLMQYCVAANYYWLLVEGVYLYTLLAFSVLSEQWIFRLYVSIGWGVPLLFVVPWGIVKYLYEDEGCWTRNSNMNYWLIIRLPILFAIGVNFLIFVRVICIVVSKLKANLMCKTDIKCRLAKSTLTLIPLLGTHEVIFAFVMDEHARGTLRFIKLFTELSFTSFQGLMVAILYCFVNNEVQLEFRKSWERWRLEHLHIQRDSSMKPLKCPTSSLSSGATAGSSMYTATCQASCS
T1 sequence (P01275 100-127 partner limits assumed): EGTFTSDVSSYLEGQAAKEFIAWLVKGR

On to `CC(C)(C)c1ccc(C(=O)N[C@@H](Cc2ccc(-c3ncc(-c4ccc(OCCC5CCCCC5)cc4)cn3)cc2)C(=O)N2CC(C(=O)O)C2)s1` [Compound 945], for which the EC50 (usually the concentration needed to bring the measured effect to its halfway point) under setting [1] is under 0.8 µM.
Consider `CCCCCCCOc1ccc(-c2cnc(-c3ccc(C[C@H](NC(=O)c4ccc(C(C)(C)C)cc4)C(=O)NCC(=O)NCCC(=O)O)cc3)nc2)cc1` [Compound 445], for which the EC50 under setting [1] was under 0.8 µM.
On the same count and under the same terms, the value for `CC(C)(C)c1ccc(C(=O)N[C@@H](Cc2ccc(-c3ncc(-c4ccc(OC5CCCCC5)cc4)cn3)cc2)C(=O)NC(C(=O)O)C(O)c2ccccc2)s1` (some centres unmarked) [Compound 938] was 5 to 10 µM.
On the same count and under the same terms, the value for `CCCCCCCOc1ccc(-c2cnc(-c3ccc(C[C@H](NC(=O)c4ccc(C(C)(C)C)s4)C(=O)N[C@@H](CC(=O)O)C(=O)N(C)C)cc3)nc2)cc1` [Compound 527] was under 0.8 µM; that for `CCCCCCCOc1ccc(-c2cnc(-c3ccc(C[C@H](NC(=O)c4ccc(C5CC5)s4)C(=O)NC(C(=O)O)C(O)c4ccccc4)cc3)nc2)cc1` (some centres unmarked) [Compound 956] was 2.5 to 5 µM; that for `CCCCCCCOc1ccc(-c2cnc(-c3ccc(C[C@H](NC(=O)c4cnn(C(C)(C)C)c4)C(=O)NC(C(=O)O)C(O)c4ccccc4)cc3)nc2)cc1` (some centres unmarked) [Compound 954] was 0.8 to 2.5 µM.
The same measure, in the same setting: as for `CC(C)(C)c1ccc(C(=O)N[C@@H](Cc2ccc(-c3ncc(-c4ccc(C(C)(C)C)cc4)cn3)cc2)C(=O)NCCC(=O)O)cc1` [Compound 675], the figure is 5 to 10 µM; as for `Cc1cccc(-c2ccc(-c3cnc(-c4ccc(C[C@H](NC(=O)c5ccc(C(C)(C)C)s5)C(=O)N[C@H](C)C(=O)O)cc4)nc3)cc2F)c1` [Compound 1141], under 0.8 µM.
Turning to `CCCCCCCOc1ccc(-c2cnc(-c3ccc(C[C@H](NC(=O)c4ccc(C(C)(C)C)cc4)C(=O)NC(Cc4cccnc4)C(=O)O)cc3)nc2)cc1` (some centres unmarked) [Compound 541], under setting [1], the EC50 lay within 0.8 to 2.5 µM.
On the same count and under the same terms, as for `CCCCCCCOc1ccc(-c2cnc(-c3ccc(C(NC(=O)c4ccc(C(C)(C)C)cc4)C(=O)O)cc3)nc2)cc1` (centres unmarked) [Compound 670], the figure is 2.5 to 5 µM.
Regarding `CC(C)(C)c1ccc(C(=O)N[C@@H](Cc2ccc(-c3ncc(-c4ccc(-c5ccc(OC(F)(F)F)cc5)cc4F)cn3)cc2)C(=O)N2CC(C(=O)O)C2)s1` [Compound 1188], the EC50 under setting [1] is under 0.8 µM.
On the same count and under the same terms, the value for `CCCCCCCOc1ccc(-c2cnc(-c3ccc(C[C@H](NC(=O)c4ccc(C(C)(C)C)s4)C(=O)N[C@@H](Cc4ccccn4)C(=O)O)cc3)nc2)cc1` [Compound 628] was 0.8 to 2.5 µM.
For `COc1ccc(C2CCN(c3cnc(-c4ccc(CC(NC(=O)c5ccc(C(C)(C)C)s5)C(=O)N5CC(C(=O)O)C5)cc4)nc3)CC2)c(C)c1` (centres unmarked) [Compound 1483], the EC50 under setting [2] lay within 0.8 to 2.5 µM.
For `CCCCCCOc1ccc(-c2cnc(-c3ccc(C[C@H](NC(=O)c4ccc(C(C)(C)C)cc4)C(=O)NCCC(=O)O)cc3)nc2)cc1` [Compound 711], the EC50 under setting [1] is 2.5 to 5 µM.
Take `CCCCOc1ccc(-c2cnc(-c3ccc(C[C@H](NC(=O)c4ccc(C(C)(C)C)s4)C(=O)N4CC(C(=O)O)C4)cc3)nc2)cc1` [Compound 786]: the EC50 under setting [1] lay within 0.8 to 2.5 µM.
As to `CC(C)CCCOc1ccc(-c2cnc(-c3ccc(C[C@H](NC(=O)c4ccc(C(C)C)cc4)C(=O)N4CC(C(=O)O)C4)cc3)nc2)cc1` [Compound 1227], the EC50 under setting [2] was 0.8 to 2.5 µM.
Take `CCCCCCCOc1ccc(-c2cnc(-c3ccc(C[C@H](NC(=O)c4ccc(C(C)(C)C)s4)C(=O)N[C@@H](CCC)C(=O)O)cc3)nc2)cc1` [Compound 403]: the EC50 under setting [1] is 0.8 to 2.5 µM.
Still for that read-out and setting: the value for `CCCCCCCOc1ccc(-c2cnc(-c3ccc(C[C@H](NC(=O)c4ccc(OCC)cc4)C(=O)N[C@H](C)C(=O)O)cc3)nc2)cc1` [Compound 818] was 0.8 to 2.5 µM; that for `CCCCCCCc1ccc(-c2cnc(-c3ccc(C[C@H](NC(=O)c4ccc(C(C)(C)C)cc4)C(=O)NCCC(=O)O)cc3)nc2)cc1` [Compound 679] was 0.8 to 2.5 µM.
Same read-out and setting: as for `CCCCCCCOc1ccc(-c2cnc(-c3ccc(C[C@H](NC(=O)c4ccc(C(C)(C)C)s4)C(=O)NC(C(=O)O)C(O)C(C)C)cc3)nc2)cc1` (some centres unmarked) [Compound 880], the figure is under 0.8 µM.
